The values below come from patent publication US8835432B2, “Heterocyclic compounds and their uses” (Amgen Inc., priority 2012, dated 2014).

Each structure is given as a SMILES string. A value given as a limit tells only on which side of the number the result lay.

In test [1] the test system is mouse model of rheumatoid arthritis. The conditions noted are these: in vivo; cited from earlier work.
Test [2] relates to model of systemic lupus erythematosis. The conditions noted are these: in vivo; cited from earlier work.
Another test addresses T1, PI3K d (Homo sapiens, UniProt O00329).
T1 construct: Full length p110 subunits of PI3k α, β and δ, N-terminally labeled with polyHis tag; polyHis (N); made in house; host or cells: Sf9 insect cells (baculovirus)
The test is described as follows: In vitro enzyme assay, PI3K delta. It counts as biochemical. How it is done: (§1) Full length p110 subunits of PI3k α, β and δ, N-terminally labeled with polyHis tag, were coexpressed with p85 with Baculo virus expression vectors in sf9 insect cells. P110/p85 heterodimers were purified by sequential Ni-NTA, Q-HP, Superdex-100 chromatography. Purified α, β and δ isozymes were stored at −20° C. in 20 mM Tris, pH 8, 0.2M NaCl, 50% glycerol, 5 mM DTT, 2 mM Na cholate. Truncated PI3Kγ, residues 114-1102, N-terminally labeled with polyHis tag, was expressed with Baculo virus in Hi5 insect cells. The γ isozyme was purified by sequential Ni-NTA, Superdex-200, Q-HP chromatography. The γ isozyme was stored frozen at −80° C. in NaH2PO4, pH 8, 0.2M NaCl, 1% ethylene glycol, 2 mM β-mercaptoethanol.
(§2) Assays were performed in 25 μL with the above final concentrations of components in white polyproplyene plates (Costar 3355). Phospatidyl inositol phosphoacceptor, PtdIns(4,5)P2 P4508, was from Echelon Biosciences. The ATPase activity of the alpha and gamma isozymes was not greatly stimulated by PtdIns(4,5)P2 under these conditions and was therefore omitted from the assay of these isozymes. Test compounds were dissolved in dimethyl sulfoxide and diluted with three-fold serial dilutions. The compound in DMSO (1 μL) was added per test well, and the inhibition relative to reactions containing no compound, with and without enzyme was determined After assay incubation at rt, the reaction was stopped and residual ATP determined by addition of an equal volume of a commercial ATP bioluminescence kit (Perkin Elmer EasyLite) according to the manufacturer's instructions, and detected using a AnalystGT luminometer.

The next test deals with PI3K b. The experiment in a line: In vitro enzyme assay, PI3K beta. The conditions noted are these: ratio of beta to delta IC50. Format: biochemical. As to the method: as §1, §2
A further test deals with T2, PI3Ka (Homo sapiens, UniProt P42336).
T2 construct: Full length p110 subunits of PI3k α, β and δ, N-terminally labeled with polyHis tag; polyHis (N); made in house; host or cells: Sf9 insect cells (baculovirus)
T2 sequence (P42336 whole entry): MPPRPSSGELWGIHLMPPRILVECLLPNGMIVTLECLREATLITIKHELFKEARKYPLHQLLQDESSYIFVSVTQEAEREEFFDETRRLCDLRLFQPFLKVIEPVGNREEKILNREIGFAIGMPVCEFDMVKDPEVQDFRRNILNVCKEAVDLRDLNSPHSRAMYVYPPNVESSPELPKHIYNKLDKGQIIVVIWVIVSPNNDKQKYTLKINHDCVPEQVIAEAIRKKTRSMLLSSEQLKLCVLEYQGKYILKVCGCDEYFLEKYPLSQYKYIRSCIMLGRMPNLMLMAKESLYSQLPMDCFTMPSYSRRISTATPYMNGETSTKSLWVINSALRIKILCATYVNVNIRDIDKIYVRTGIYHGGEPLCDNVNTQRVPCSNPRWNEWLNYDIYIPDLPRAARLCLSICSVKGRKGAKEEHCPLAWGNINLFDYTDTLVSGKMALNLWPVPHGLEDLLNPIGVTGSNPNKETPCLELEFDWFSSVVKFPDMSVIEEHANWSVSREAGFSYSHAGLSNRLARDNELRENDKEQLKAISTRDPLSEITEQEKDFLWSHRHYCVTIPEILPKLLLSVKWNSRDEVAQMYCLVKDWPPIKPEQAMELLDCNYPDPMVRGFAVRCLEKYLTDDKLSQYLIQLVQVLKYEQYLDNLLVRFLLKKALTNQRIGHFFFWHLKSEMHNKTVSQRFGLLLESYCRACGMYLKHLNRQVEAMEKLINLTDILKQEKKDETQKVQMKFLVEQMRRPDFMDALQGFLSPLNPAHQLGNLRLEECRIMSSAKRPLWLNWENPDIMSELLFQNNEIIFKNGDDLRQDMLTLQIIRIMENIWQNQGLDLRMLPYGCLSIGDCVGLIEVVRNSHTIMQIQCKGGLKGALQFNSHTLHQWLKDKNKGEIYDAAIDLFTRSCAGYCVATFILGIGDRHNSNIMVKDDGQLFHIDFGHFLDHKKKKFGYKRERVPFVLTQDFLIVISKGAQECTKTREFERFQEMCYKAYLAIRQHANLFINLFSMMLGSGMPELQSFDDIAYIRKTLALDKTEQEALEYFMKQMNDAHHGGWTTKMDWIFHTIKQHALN
T2 sequence (P27986 whole entry partner): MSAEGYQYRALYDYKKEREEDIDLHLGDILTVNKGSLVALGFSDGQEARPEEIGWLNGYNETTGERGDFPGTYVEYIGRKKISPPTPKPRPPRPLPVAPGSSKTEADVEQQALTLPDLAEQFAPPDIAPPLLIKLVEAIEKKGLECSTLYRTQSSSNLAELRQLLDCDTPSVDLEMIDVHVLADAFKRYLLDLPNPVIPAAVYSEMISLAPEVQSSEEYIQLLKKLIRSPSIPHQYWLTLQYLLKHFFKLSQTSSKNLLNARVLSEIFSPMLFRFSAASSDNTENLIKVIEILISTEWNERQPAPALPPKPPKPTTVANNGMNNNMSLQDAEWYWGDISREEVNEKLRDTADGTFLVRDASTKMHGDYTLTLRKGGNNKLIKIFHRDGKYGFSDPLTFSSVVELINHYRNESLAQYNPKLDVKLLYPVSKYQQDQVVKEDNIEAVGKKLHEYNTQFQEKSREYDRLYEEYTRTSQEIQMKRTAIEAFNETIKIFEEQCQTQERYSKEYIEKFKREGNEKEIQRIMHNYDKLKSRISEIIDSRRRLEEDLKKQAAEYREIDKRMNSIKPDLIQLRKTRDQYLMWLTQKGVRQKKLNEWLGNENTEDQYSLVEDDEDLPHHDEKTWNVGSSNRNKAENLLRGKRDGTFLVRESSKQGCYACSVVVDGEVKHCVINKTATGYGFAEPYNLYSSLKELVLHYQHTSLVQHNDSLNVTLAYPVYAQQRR
The test is described as follows: In vitro enzyme assay, PI3K alpha. It counts as biochemical. The conditions noted are these: for PI3K: a/d: ratio of alpha to delta IC50. As to the method:
as §1, §2

The target in another test is T3, PI3Kg (Homo sapiens, UniProt P48736).
T3 construct: Truncated PI3Kγ, residues 114-1102, N-terminally labeled with polyHis tag; polyHis (N); made in house; host or cells: Hi5 insect cells (baculovirus)
T3 sequence (P48736 114-1102): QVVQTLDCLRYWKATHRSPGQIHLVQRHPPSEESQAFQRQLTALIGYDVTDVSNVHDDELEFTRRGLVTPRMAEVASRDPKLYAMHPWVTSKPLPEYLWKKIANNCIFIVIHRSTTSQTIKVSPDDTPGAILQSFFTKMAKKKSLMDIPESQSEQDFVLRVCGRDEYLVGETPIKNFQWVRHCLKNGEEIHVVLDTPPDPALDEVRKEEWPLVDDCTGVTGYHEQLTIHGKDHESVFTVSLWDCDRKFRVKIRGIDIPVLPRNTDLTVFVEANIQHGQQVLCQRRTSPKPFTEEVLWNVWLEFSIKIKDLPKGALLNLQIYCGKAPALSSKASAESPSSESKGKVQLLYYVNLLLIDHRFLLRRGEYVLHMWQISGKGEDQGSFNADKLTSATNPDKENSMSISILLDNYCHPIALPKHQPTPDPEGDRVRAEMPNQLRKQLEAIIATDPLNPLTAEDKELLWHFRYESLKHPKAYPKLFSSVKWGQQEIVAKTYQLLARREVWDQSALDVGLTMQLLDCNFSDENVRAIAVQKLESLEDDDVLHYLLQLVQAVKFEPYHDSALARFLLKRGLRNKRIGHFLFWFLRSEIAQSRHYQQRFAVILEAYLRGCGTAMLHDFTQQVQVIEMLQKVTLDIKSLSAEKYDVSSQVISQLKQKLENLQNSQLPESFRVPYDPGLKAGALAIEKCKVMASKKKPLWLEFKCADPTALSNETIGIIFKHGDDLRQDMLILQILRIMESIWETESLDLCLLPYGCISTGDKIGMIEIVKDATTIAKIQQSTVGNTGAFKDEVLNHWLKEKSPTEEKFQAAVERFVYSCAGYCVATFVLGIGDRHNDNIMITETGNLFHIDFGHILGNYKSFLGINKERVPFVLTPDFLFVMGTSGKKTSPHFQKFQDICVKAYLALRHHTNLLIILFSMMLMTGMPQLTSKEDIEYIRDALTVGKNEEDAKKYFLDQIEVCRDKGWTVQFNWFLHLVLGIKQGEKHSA
The experiment in a line: In vitro enzyme assay, PI3K gamma. The conditions noted are these: for PI3K: g/d: ratio of gamma to delta IC50. It counts as biochemical. How it is done:
as §1, §2

Another test has as its system mu splenocytes pAKT. The test is described as follows: on target anti-IgM mu splenocytes pAKT. It counts as cell-based. The conditions noted are these: Mus musculus, Splenocyte, read-out: on target anti-IgM mu splenocytes pAKT (Hu splenocytes PAKT).
The next test addresses T4, PI3KIII (Homo sapiens, UniProt Q8NEB9).
T4 construct: host or cells: U2OS EGFP-2XFYVE cells
The test is described as follows: Class III PI(3)P assay (U20S EGFP-2XFYVE cells). It counts as cell-based. As to the method:
(§3) GFP Assays for Detecting Inhibition of Class Ia and Class III PI3K
FYVE domains bind to PI(3)P. the majority is generated by constitutive action of PI3K Class III
Class III PI(3)P assay (U20S EGFP-2XFYVE Cells/GE Healthcare)
Wash cells with assay buffer. Treat with compounds in assay buffer 1 h. Fix and image.
Control for all 3 assays is […] Wortmannin:
PI(3)P depleted from endosomes

The subject of a further test is pAKT. The test is described as follows: pAKT in vivo assay. The conditions noted are these: mice, p.o.; for in vivo pAKT data, ED50 (uM) WB: first value of the cell; for in vivo pAKT data, ED50 (uM) spleenocytes: second value of the cell. How it is done:
Vehicle and compounds are administered p.o. (0.2 mL) by gavage (Oral Gavage Needles Popper & Sons, New Hyde Park, N.Y.) to mice (Transgenic Line 3751, female, 10-12 wks Amgen Inc, Thousand Oaks, Calif.) 15 min prior to the injection i.v (0.2 mLs) of anti-IgM FITC (50 ug/mouse) (Jackson Immuno Research, West Grove, Pa.). After 45 min the mice are sacrificed within a CO2 chamber. Blood is drawn via cardiac puncture (0.3 mL) (1cc 25 g Syringes, Sherwood, St. Louis, Mo.) and transferred into a 15 mL conical vial (Nalge/Nunc International, Denmark). Blood is immediately fixed with 6.0 mL of BD Phosflow Lyse/Fix Buffer (BD Bioscience, San Jose, Calif.), inverted 3X's and placed in 37° C. water bath. Half of the spleen is removed and transferred to an eppendorf tube containing 0.5 mL of PBS (Invitrogen Corp, Grand Island, N.Y.). The spleen is crushed using a tissue grinder (Pellet Pestle, Kimble/Kontes, Vineland, N.J.) and immediately fixed with 6.0 mL of BD Phosflow Lyse/Fix buffer, inverted 3X's and placed in 37° C. water bath. Once tissues have been collected the mouse is cervically-dislocated and carcass to disposed. After 15 min, the 15 mL conical vials are removed from the 37° C. water bath and placed on ice until tissues are further processed. Crushed spleens are filtered through a 70 μm cell strainer (BD Bioscience, Bedford, Mass.) into another 15 mL conical vial and washed with 9 mL of PBS. Splenocytes and blood are spun @ 2,000 rpms for 10 min (cold) and buffer is aspirated. Cells are resuspended in 2.0 mL of cold (−20° C.) 90% methyl alcohol (Mallinckrodt Chemicals, Phillipsburg, N.J.). MeOH is slowly added while conical vial is rapidly vortexed. Tissues are then stored at −20° C. until cells can be stained for FACS analysis.

For test [3], the target named is T5, PI3Kb (Homo sapiens, UniProt P42338). The test is described as follows: Forkhead translocation assay (MDA MB468 Forkhead-DiversaGFP cells). Format: cell-based. On the set-up: endogenous in cells; host or cells: MDA MB468 (Forkhead-DiversaGFP) cells. The conditions noted are these: first value of the cell; MDA468 forkhead; read-out: PI3KbMDA468 FH. How it is done:
as §3
Forkhead (FKHRL1) is a substrate for AKT1. It is cytoplasmic when phosphorylated by AKT (survival/growth). Inhibition of AKT (stasis/apoptosis)-forkhead translocation to the nucleus
Forkhead Translocation Assay (MDA MB468 Forkhead-DiversaGFP Cells)
Treat cells with compound in growth medium 1 h. Fix and image.

Test [4] addresses T5, PI3Kb. The test is described as follows: PI3Kb MB MDA468 cell assay. It counts as cell-based. On the set-up: endogenous in cells; host or cells: MDA MB468 (Forkhead-DiversaGFP) cells. The conditions noted are these: second value of the cell; read-out: PI3KbMBMDA468.
The target in test [5] is T5, PI3Kb. The test is described as follows: In vitro enzyme assay, PI3K beta. It counts as biochemical. Details: Full length p110 subunits of PI3k α, β and δ, N-terminally labeled with polyHis tag; polyHis (N); made in house; host or cells: Sf9 insect cells (baculovirus). The conditions noted are these: read-out: P13K b IC50. How it is done: as §1, §2

T1 sequence (O00329 whole entry): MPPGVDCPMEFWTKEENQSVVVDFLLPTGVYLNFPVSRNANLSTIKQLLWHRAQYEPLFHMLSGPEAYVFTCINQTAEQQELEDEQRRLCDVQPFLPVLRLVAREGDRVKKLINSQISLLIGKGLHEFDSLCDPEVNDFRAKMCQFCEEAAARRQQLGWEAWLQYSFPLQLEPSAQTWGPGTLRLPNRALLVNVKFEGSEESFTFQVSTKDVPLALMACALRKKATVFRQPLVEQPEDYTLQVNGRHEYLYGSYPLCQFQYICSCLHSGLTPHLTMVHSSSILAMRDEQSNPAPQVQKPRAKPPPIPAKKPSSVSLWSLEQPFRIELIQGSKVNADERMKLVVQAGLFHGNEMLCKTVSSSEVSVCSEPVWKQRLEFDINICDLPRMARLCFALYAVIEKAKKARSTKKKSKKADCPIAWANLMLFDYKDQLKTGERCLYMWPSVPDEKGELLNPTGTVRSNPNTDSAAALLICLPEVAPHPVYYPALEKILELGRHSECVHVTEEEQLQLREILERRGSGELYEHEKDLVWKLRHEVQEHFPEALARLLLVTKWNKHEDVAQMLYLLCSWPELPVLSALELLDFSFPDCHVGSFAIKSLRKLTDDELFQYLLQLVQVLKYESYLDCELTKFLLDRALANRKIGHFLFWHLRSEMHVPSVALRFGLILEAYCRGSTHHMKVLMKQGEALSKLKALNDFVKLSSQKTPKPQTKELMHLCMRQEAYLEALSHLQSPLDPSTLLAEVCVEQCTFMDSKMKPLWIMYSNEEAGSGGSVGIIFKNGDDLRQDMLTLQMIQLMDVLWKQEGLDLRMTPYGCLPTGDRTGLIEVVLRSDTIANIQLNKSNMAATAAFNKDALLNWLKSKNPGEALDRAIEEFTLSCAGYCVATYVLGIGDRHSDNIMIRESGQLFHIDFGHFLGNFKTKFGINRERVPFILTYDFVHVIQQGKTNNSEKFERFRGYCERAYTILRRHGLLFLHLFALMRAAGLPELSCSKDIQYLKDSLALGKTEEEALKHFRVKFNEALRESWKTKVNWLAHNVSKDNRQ
T1 sequence (P27986 whole entry partner): as the sequence (P27986 whole entry partner) above
T4 sequence (Q8NEB9 whole entry): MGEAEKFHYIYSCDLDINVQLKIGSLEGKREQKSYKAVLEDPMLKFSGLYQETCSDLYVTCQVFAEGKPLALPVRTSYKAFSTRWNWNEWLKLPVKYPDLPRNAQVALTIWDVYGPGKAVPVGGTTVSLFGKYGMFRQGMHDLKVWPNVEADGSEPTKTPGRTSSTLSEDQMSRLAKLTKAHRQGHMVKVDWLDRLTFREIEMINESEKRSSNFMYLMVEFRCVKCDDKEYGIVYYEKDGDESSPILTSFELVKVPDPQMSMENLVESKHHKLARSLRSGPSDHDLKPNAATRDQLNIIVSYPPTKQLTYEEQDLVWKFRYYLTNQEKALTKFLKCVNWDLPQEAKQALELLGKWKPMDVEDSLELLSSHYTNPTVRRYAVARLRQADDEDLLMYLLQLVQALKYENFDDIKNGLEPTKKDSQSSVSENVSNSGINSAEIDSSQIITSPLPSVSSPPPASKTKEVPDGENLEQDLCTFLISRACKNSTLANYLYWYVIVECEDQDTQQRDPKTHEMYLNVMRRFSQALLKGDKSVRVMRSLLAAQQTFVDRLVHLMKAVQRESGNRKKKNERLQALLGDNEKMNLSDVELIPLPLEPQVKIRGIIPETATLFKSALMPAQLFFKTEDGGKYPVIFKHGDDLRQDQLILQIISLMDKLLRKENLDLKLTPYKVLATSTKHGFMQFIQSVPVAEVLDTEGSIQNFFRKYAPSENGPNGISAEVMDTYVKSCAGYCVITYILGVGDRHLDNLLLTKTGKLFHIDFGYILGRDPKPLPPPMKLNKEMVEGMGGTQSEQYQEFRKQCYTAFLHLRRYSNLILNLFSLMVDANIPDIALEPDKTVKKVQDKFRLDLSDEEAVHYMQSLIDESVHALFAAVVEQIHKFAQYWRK

For the molecule `O=C1NC(=O)/C(=C\c2ccc3nccnc3c2)S1` [AS 605240], in test [1], the “efficacy in a mouse model of rheumatoid arthritis” value is listed as “efficacious”. The “onset of disease in a model of systemic lupus erythematosis” value in test [2] is on record as “delay onset of disease”.
For `C[C@H](Nc1ncnc(N)c1C#N)c1cc2cccc(F)c2nc1-c1ccccc1S(C)(=O)=O` [Example 1, 4-amino-6-(((1S)-1-(8-fluoro-2-(2-(methylsulfonyl)phenyl)-3-quinolinyl)-ethyl)amino)-5-pyrimidinecarbonitrile], the IC50 is 3 nM on PI3K d; 1610 nM on PI3Kg; 2.2 nM in the test on mu splenocytes pAKT; above 10000 nM on PI3KIII; 5970 nM at PI3Kb [3]; 2600 nM at PI3Kb [4]. Moreover, the IC50 at PI3Kb [5] amounted to 4740 nM. Besides, the “PI3K: b/d” value with PI3K b was determined as 1580. Besides, on PI3Ka, the “PI3Ka IC50” value was 9980 nM. For the same molecule, on PI3Ka, the “PI3K: a/d” value was 3327. For the same molecule, the “PI3K: g/d” value at PI3Kg was 537. Besides, the “in vivo pAKT data, ED50 (uM) WB” value in the test with pAKT was 0.041 uM. Besides, in the test with pAKT, the “in vivo pAKT data, ED50 (uM) spleenocytes” value was determined as 0.010 uM.
In the case of `C[C@H](Nc1ncnc(N)c1C#N)c1cc2ccc(F)cc2nc1-c1ccccc1S(C)(=O)=O` [Example 2, (S)-4-amino-6-((1-(7-fluoro-2-(2-(methylsulfonyl)phenyl)quinolin-3-yl)ethyl)-amino)pyrimidine-5-carbonitrile], the IC50 against PI3K d was 7.8 nM; at PI3Kg, 804 nM; in the test on mu splenocytes pAKT it was 1.2 nM; against PI3KIII, above 10000 nM; at PI3Kb [3], above 10000 nM; on PI3Kb [4] it was 811 nM. The IC50 at PI3Kb [5] is 1360 nM. For the same molecule, the “PI3K: b/d” value in the test with PI3K b was 174. For the same molecule, the “PI3Ka IC50” value at PI3Ka stood at 7040 nM. Also, at PI3Ka, the “PI3K: a/d” value stood at 903. The “PI3K: g/d” value on PI3Kg turned out to be 103. Also, in the test with pAKT, the “in vivo pAKT data, ED50 (uM) WB” value is 0.36 uM. Besides, the “in vivo pAKT data, ED50 (uM) spleenocytes” value in the test on pAKT is 0.26 uM.
Consider `C[C@H](Nc1ncnc(N)c1C#N)c1cc2ccc(F)cc2nc1-c1cccc(F)c1` [Example 3, 4-amino-6-((S)-1-(7-fluoro-2-(3-fluorophenyl)quinolin-3-yl)ethylamino)-pyrimidine-5-carbonitrile], for which the IC50 against PI3K d is 5.1 nM; at PI3Kg, 62.9 nM; with mu splenocytes pAKT it was 1.5 nM; against PI3KIII, above 10000 nM; on PI3Kb [3] it was 3800 nM; on PI3Kb [4], 483 nM. For the same molecule, the IC50 at PI3Kb [5] is 434 nM. In the test with PI3K b, the “PI3K: b/d” value worked out at 85. Also, at PI3Ka, the “PI3Ka IC50” value is 3420 nM. The “PI3K: a/d” value on PI3Ka is recorded as 671. Further, the “PI3K: g/d” value at PI3Kg came to 12.
Consider `C[C@H](Nc1ncnc(N)c1C#N)c1cc2ccc(F)cc2nc1-c1ccccn1` [Example 4, 4-amino-6-((S)-1-(7-fluoro-2-(pyridin-2-yl)quinolin-3-yl)ethylamino)-pyrimidine-5-carbonitrile], for which the IC50 on PI3K d is 10 nM; at PI3Kg, 448 nM; with mu splenocytes pAKT, 1.8 nM; against PI3KIII, above 10000 nM; on PI3Kb [3] it was 1950 nM; on PI3Kb [4], 620 nM. For the same molecule, the IC50 at PI3Kb [5] came out at 522 nM. In the test with PI3K b, the “PI3K: b/d” value came out at 52. Moreover, at PI3Ka, the “PI3Ka IC50” value is 12060 nM. In addition, at PI3Ka, the “PI3K: a/d” value is 1206. Moreover, on PI3Kg, the “PI3K: g/d” value is listed as 45.
In the case of `C[C@H](Nc1ncnc(N)c1C#N)c1nc2cccc(Cl)c2nc1-c1ccccc1S(C)(=O)=O` [Example 5, (S)-4-amino-6-((1-(5-chloro-3-(2-(methylsulfonyl)phenyl)quinoxalin-2-yl)-ethyl)amino)pyrimidine-5-carbonitrile], the IC50 against PI3K d is 2.6 nM; at PI3Kg, 620 nM; with mu splenocytes pAKT, 5 nM; against PI3KIII it was above 10000 nM; on PI3Kb [3], above 10000 nM; on PI3Kb [4], above 10000 nM. In addition, the IC50 on PI3Kb [5] came to 652 nM. Also, the “PI3K: b/d” value in the test on PI3K b was 251. Further, the “PI3Ka IC50” value on PI3Ka came out at 5160 nM. The “PI3K: a/d” value on PI3Ka is given as 1985. For the same molecule, the “PI3K: g/d” value at PI3Kg is 238. In addition, the “in vivo pAKT data, ED50 (uM) WB” value in the test with pAKT was determined as 0.056 uM. The “in vivo pAKT data, ED50 (uM) spleenocytes” value in the test with pAKT was found to be 0.012 uM.
`C[C@H](Nc1ncnc(N)c1C#N)c1nc2cccc(C#N)c2nc1-c1ccccc1S(C)(=O)=O` [Example 6, 2-((S)-1-(6-amino-5-cyanopyrimidin-4-ylamino)ethyl)-3-(2-(methylsulfonyl)-phenyl)quinoxaline-5-carbonitrile]: the IC50 on PI3K d was 7 nM; on PI3Kg, 2800 nM; with mu splenocytes pAKT it was 6 nM; against PI3KIII, above 10000 nM; on PI3Kb [4], 11000 nM; on PI3Kb [5], 5800 nM. The “PI3K: b/d” value with PI3K b amounted to 829. In addition, the “PI3Ka IC50” value on PI3Ka stood at 25000 nM. In addition, on PI3Ka, the “PI3K: a/d” value is reported as 3571. For the same molecule, the “PI3K: g/d” value at PI3Kg came to 400. Also, in the test with pAKT, the “in vivo pAKT data, ED50 (uM) WB” value is 0.13 (WB) uM.
